Target: T1, human DGAT2 (Homo sapiens, UniProt Q96PD7)
T1 construct: FLAG (DYKDDDDK); made in house; host or cells: Sf-21 insect cells (BacPAK baculovirus system); membrane fraction used
T1 sequence (Q96PD7 1-388): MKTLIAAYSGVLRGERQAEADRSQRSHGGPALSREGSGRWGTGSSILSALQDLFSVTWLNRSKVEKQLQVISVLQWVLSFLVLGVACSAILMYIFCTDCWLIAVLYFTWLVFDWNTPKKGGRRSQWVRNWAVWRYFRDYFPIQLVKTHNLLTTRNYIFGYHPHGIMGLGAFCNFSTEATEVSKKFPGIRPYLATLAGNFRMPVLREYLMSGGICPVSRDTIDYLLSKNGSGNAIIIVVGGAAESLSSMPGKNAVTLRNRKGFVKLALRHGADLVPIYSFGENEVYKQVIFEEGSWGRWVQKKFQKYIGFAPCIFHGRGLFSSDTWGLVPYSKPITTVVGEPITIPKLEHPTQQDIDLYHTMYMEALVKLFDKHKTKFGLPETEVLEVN
Test: DGAT2 enzyme activity inhibition, Phospholipid FlashPlate SPA
Format: biochemical
Details: recombinant human DGAT2 membrane protein from Sf-21 cells; inhibition of [14C]-TG production; 37° C.
Description: In order to prepare the pBacPAK9-DGAT2, which is DGAT2 expression vector, the human DGAT2 gene amplified by polymerase chain reaction (PCR) was cloned into the EcoR1 and Xho1 sites of the pBacPAK9 (clonctech) vector. The nucleotide sequence of the primers used in PCR was the forward primer 5′ […] (SEQ. ID. NO: 2). The composition of the reaction solution was to contain 50 ng of cDNA clone (OriGene), 200 μM of dATP, dCTP, dTTP, dGTP, 200 nM of each primer, 1 unit of Tag DNA Polymerase (Toyobo), 1×PCR buffer, and the final volume was adjusted to 20 μl. The reaction conditions were denatured at 95° C. for 5 minutes, followed by 30 times of 94° C. for 20 seconds, 60° C. for 20 seconds, and 72° C. for 90 seconds, followed by further reaction at 72° C. for 7 minutes.
Recombinant human DGAT2 protein was expressed in Sf-21 cells, which are insect cells, by using the BacPack baculovirus expression system (Clontech). The brief manufacturing process is as follows. First, the pBacPAK9-DGAT2 expression vector was transfected with BacPAK6 virus DNA (Bsu36I digest) into sf21 cells using Bacfectin to prepare a recombinant DGAT2 expressing baculovirus. The thus prepared baculovirus was infected with Sf-21 cells at 10 MOI (multiplicity of infection), and after 72 hours, infected insect cells were collected and membrane proteins were isolated. For membrane protein separation, the cell pellet was dissolved in a sucrose solution containing 250 mM sucrose, 10 mM Tris (pH 7.4), and 1 mM ethylenediamine-tetraacetic acid (EDTA), and then homogenized by using a dounce homogenizer, and the supernatant was taken by centrifuging at 600×g for 15 minutes, and centrifuged at 100,000×g for 1 hour to discard the supernatant, and the remaining pellet was resuspended in 20 mM HEPES buffer (pH 7.4). The prepared DGAT2 overexpressing membrane protein was dispensed in 100 μl and stored at −80° C. until use. Protein concentration was quantified by using the BCA Protein Assay Kit (Thermo Scientific).
In vitro DGAT2 analysis was performed using a Phospholipid Flash Plate (PerkinElmer) based on the principle of SPA (Scintilation Proximity Assay). First, DGAT2 inhibition compounds serially diluted 5 times from 3 nM to 10 μM (final concentration, 1% DMSO) were mixed in a buffer solution containing 2 μg DGAT2-membrane protein and 20 mM HEPES, 20 mM MgCl2, 1 mg/mL BSA, 50 μM 1,2 sn-oleoyl glycerol (Sigma), put in a 96-well flash plate (FlashPlate) and reacted at 37° C. for 20 minutes, and then 1 μM [14C] ole oil CoA (PerkinElmer, NEC651050UC) was added to be a final volume of 100 μL and further reacted at 37° C. for 15 minutes. After the enzymatic reaction was completed, 100 μL of isopropanol was added, the plate was sealed with a film, and the plate was shaken slowly in a plate shaker. The next day, the amplified scintillation signal (cpm) in Topcounter (Packard) was measured to measure the degree of production of [14C]-labeled triacyl glycerol (TG) as a reaction product. The measured value when the compound was not treated was used as a positive control, and the measured value of the compound treated group was calculated as a relative % to measure the inhibition effect of the compound on TG production.

Structure (SMILES) | IC50
CCOc1ccccc1O[C@@H]1CCCN(c2cncc(Nc3cccc(N4CCC(C(=O)O)CC4)n3)n2)C1 [Example 56, (R)-1-(6-((6-(3-(2-ethoxyphenoxy)piperidin-1-yl)pyrazin-2-yl)amino)pyridin-2-yl)piperidine-4-carboxylic Acid] | 130 nM
CCOc1ccccc1O[C@@H]1CCCN(c2cncc(Nc3cccc(N4CCC(CC(=O)O)CC4)n3)n2)C1 [Example 57, (R)-2-(1-(6-((6-(3-(2-ethoxyphenoxy)piperidin-1-yl)pyrazin-2-yl)amino)pyridin-2-yl)piperidin-4-yl)acetic Acid] | 330 nM
CCOc1ccccc1O[C@@H]1CCCN(c2cncc(Nc3cccc(N4CCC(C(C)(C)C(=O)O)CC4)n3)n2)C1 [Example 58, (R)-2-(1-(6-((6-(3-(2-ethoxyphenoxy)piperidin-1-yl)pyrazin-2-yl)amino)pyridin-2-yl)piperidin-4-yl)-2-methylpropanoic Acid] | 310 nM
CCOc1ccccc1O[C@@H]1CCCN(c2cncc(Nc3cccc(N4CCC[C@H](OCC(=O)O)C4)n3)n2)C1 [Example 59] | 3700 nM
CCOc1ccccc1O[C@@H]1CCCN(c2cncc(Nc3cccc(-c4cccc(C(C)(C)C(=O)O)c4)n3)n2)C1 [Example 60, (R)-2-(3-(6-((6-(3-(2-ethoxyphenoxy)piperidin-1-yl)pyrazin-2-yl)amino)pyridin-2-yl)phenyl)-2-methylpropanoic Acid] | 220 nM
CCOc1ccccc1O[C@@H]1CCCN(c2cncc(Nc3cccc(-c4ccc(C(C)(C)C(=O)O)cc4)n3)n2)C1 [Example 61, (R)-2-(4-(6-((6-(3-(2-ethoxyphenoxy)piperidin-1-yl)pyrazin-2-yl)amino)pyridin-2-yl)phenyl)-2-methylpropanoic Acid] | 91 nM
CCOc1cccnc1O[C@@H]1CCCN(c2cncc(Nc3cccc(-c4ccc(C(C)(C)C(=O)O)cc4)n3)n2)C1 [Example 62, (R)-2-(4-(6-((6-(3-((3-ethoxypyridin-2-yl)oxy)piperidin-1-yl)pyrazin-2-yl)amino)pyridin-2-yl)phenyl)-2-methylpropanoic Acid] | 170 nM
CCOc1ccccc1O[C@@H]1CCCN(c2cncc(Nc3cccc(-c4cccc(CC(C)(C)C(=O)O)c4)n3)n2)C1 [Example 63, (R)-3-(3-(6-((6-(3-(2-ethoxyphenoxy)piperidin-1-yl)pyrazin-2-yl)amino)pyridin-2-yl)phenyl)-2,2-dimethylpropanoic Acid] | 71 nM
CCOc1cccnc1O[C@@H]1CCCN(c2cncc(Nc3cccc(-c4cccc(CC(C)(C)C(=O)O)c4)n3)n2)C1 [Example 64, (R)-3-(3-(6-((6-(3-((3-ethoxypyridin-2-yl)oxy)piperidin-1-yl)pyrazin-2-yl)amino)pyridin-2-yl)phenyl)-2,2-dimethylpropanoic Acid] | 130 nM
CCOc1ccccc1O[C@@H]1CCCN(c2cccc(Nc3cccc(-c4cccc(CC(C)(C)C(=O)O)c4)n3)n2)C1 [Example 65, (R)-3-(3-(6-((6-(3-(2-ethoxyphenoxy)piperidin-1-yl)pyridin-2-yl)amino)pyridin-2-yl)phenyl)-2,2-dimethylpropanoic Acid] | 1500 nM
CCOc1ccccc1O[C@@H]1CCCN(c2nccc(Nc3cccc(-c4cccc(CC(C)(C)C(=O)O)c4)n3)n2)C1 [Example 66, (R)-3-(3-(6-((2-(3-(2-ethoxyphenoxy)piperidin-1-yl)pyrimidin-4-yl)amino)pyridin-2-yl)phenyl)-2,2-dimethylpropanoic Acid] | 3500 nM
CCOc1ccccc1O[C@@H]1CCCN(c2ccnc(Nc3cccc(-c4cccc(CC(C)(C)C(=O)O)c4)n3)n2)C1 [Example 67, (R)-3-(3-(6-((4-(3-(2-ethoxyphenoxy)piperidin-1-yl)pyrimidin-2-yl)amino)pyridin-2-yl)phenyl)-2,2-dimethylpropanoic Acid] | 2400 nM
CCOc1cccnc1O[C@@H]1CCCN(c2ccnc(Nc3cccc(-c4cccc(CC(C)(C)C(=O)O)c4)n3)n2)C1 [Example 68, (R)-3-(3-(6-((4-(3-((3-ethoxypyridin-2-yl)oxy)piperidin-1-yl)pyrimidin-2-yl)amino)pyridin-2-yl)phenyl)-2,2-dimethylpropanoic Acid] | 3300 nM
CCOc1ccccc1O[C@@H]1CCCN(c2cncc(Nc3ccn(-c4cccc(CC(C)(C)C(=O)O)c4)n3)n2)C1 [Example 69, (R)-3-(3-(3-((6-(3-(2-ethoxyphenoxy)piperidin-1-yl)pyrazin-2-yl)amino)-1H-pyrazol-1-yl)phenyl)-2,2-dimethylpropanoic Acid] | 1100 nM
CCOc1ccccc1O[C@@H]1CCCN(c2ncc(C(F)(F)F)c(Nc3cccc(-c4cccc(CC(C)(C)C(=O)O)c4)n3)n2)C1 [Example 70, (R)-3-(3-(6-((2-(3-(2-ethoxyphenoxy)piperidin-1-yl)-5-(trifluoromethyl)pyrimidin-4-yl)amino)pyridin-2-yl)phenyl)-2,2-dimethylpropanoic Acid] | > 10000 nM
CCOc1ccccc1O[C@@H]1CCCN(c2nc(Nc3cccc(-c4cccc(CC(C)(C)C(=O)O)c4)n3)ncc2C(F)(F)F)C1 [Example 71, (R)-3-(3-(6-((4-(3-(2-ethoxyphenoxy)piperidin-1-yl)-5-(trifluoromethyl)pyrimidin-2-yl)amino)pyridin-2-yl)phenyl)-2,2-dimethylpropanoic Acid] | 670 nM
CCOc1ccccc1O[C@@H]1CCCN(c2cncc(Nc3cccc(-c4ccc(CC(C)(C)C(=O)O)cc4)n3)n2)C1 [Example 72, (R)-3-(4-(6-((6-(3-(2-ethoxyphenoxy)piperidin-1-yl)pyrazin-2-yl)amino)pyridin-2-yl)phenyl)-2,2-dimethylpropanoic Acid] | 140 nM
CCOc1ccccc1O[C@@H]1CCCN(c2cncc(Nc3cccc(-c4ccc(NCC(=O)O)cc4)n3)n2)C1 [Example 73, (R)-(4-(6-((6-(3-(2-ethoxyphenoxy)piperidin-1-yl)pyrazin-2-yl)amino)pyridin-2-yl)phenyl)glycine] | 890 nM
CCOc1cccnc1O[C@@H]1CCCN(c2cncc(Nc3cccc(-c4ccc(NCC(=O)O)cc4)n3)n2)C1 [Example 74, (R)-(4-(6-((6-(3-((3-ethoxypyridin-2-yl)oxy)piperidin-1-yl)pyrazin-2-yl)amino)pyridin-2-yl)phenyl)glycine] | 980 nM
CCOc1ccccc1O[C@@H]1CCCN(c2nccc(Nc3cccc(-c4ccc(NCC(=O)O)cc4)n3)n2)C1 [Example 75, (R)-(4-(6-((2-(3-(2-ethoxyphenoxy)piperidin-1-yl)pyrimidin-4-yl)amino)pyridin-2-yl)phenyl)glycine] | 890 nM
CCOc1ccccc1O[C@@H]1CCCN(c2ccnc(Nc3cccc(-c4ccc(NCC(=O)O)cc4)n3)n2)C1 [Example 76] | 300 nM
CCOc1ccccc1O[C@@H]1CCCN(c2cncc(Nc3cccc(-c4ccc(NC(C)(C)C(=O)O)cc4)n3)n2)C1 [Example 77, (R)-2-((4-(6-((6-(3-(2-ethoxyphenoxy)piperidin-1-yl)pyrazin-2-yl)amino)pyridin-2-yl)phenyl)amino)-2-methylpropanoic Acid] | 250 nM
CCOc1ccccc1O[C@@H]1CCCN(c2cncc(Nc3cccc(-c4cc(CC(C)(C)C(=O)O)ccc4F)n3)n2)C1 [Example 78, (R)-3-(3-(6-((6-(3-(2-ethoxyphenoxy)piperidin-1-yl)pyrazin-2-yl)amino)pyridin-2-yl)-4-fluorophenyl)-2,2-dimethylpropanoic Acid] | 290 nM
